Test results published in patent US20120065203A1, “Methods of Reducing Serum Glucose and Triglyceride Levels and for Inhibiting Angiogenesis Using Substituted Indolealkanoic Acids” (The Institute for Pharmaceutical Discovery, LLC, priority 1998, published 2012).
Read-outs that look alike come from different tables or passages of the source.

Tests used:
[1] = target: human aldose reductase (hALR2) (Homo sapiens, UniProt P15121); test: Inhibition of human aldose reductase (hALR2); assay type: biochemical
Method: Representative compounds of the invention were tested for their potency, selectivity and efficacy as inhibitors of human aldose reductase.

diabetic (db/db) mice = conditions: for mean percent change in glucose (lowering): after four weeks
Method: The mice are obese, extremely hyperglycemic and also hyperinsulinemic.
Male db/db mice (8 weeks old) were obtained from Jackson Laboratories and were allowed to acclimate for 1 week before the experiment commenced. A sample of blood was collected from the tail after which plasma glucose was isolated by centrifigation and the glucose concentration was measured in the plasma enzymatically on the COBAS automated clinical_analyzer equipped with a glucose kit that utilized hexokinas to quantitate the amount of glucose in a sample (Roche Diagnostic Systems, kit #47382). Mice with the lowest plasma glucose values were removed from the study and the remaining mice were randomized according to their individual plasma glucose values into 3 treatment groups (n=12 per group), control untreated db/db mice, 100 mg/kg/d compound treated db/db mice and 300_mg/kg/d compound treated db/db mice.
Treatment with the compound was carried out for 4 weeks during which time blood glucose levels were measured weekly from the tail using the One Touch II blood glucose meter (Lifescan, Inc). The blood glucose values of mice in the compound treated groups was compared to the blood glucose values of mice from the control untreated group by an analysis of variance followed by Dunett's Comparison Test (one-tailed).

[2] = tested on: STZ treated diabetic minipigs; test: Wound healing in STZ treated diabetic minipigs; assay type: in vivo, minipig; conditions: STZ diabetic minipigs with wounds, compared with untreated controls
Excerpt: These animals are compared with control STZ diabetic minipigs also having wounds but that are not treated with the compound.

[3] = tested on: streptozotocin-induced diabetic rats; conditions: STZ diabetic rats, 10 mg/kg daily by gavage, listed as test compound
Method: Diabetes is induced in animals as follows: male Sprague-Dawley rats (150 g), supplied by Harlan Teklad (Madison, Wis.), are allowed to acclimate for 1 week and water is supplied ad libitum. […] STZ, 40 mg/kg, is prepared in 0.03 M citrate buffer, pH 4.5 and administered intraperitoneally after a 24-hr fast. Control animals receive citrate buffer.
Two hours after STZ injection, food is returned. Two days following STZ injection, blood glucose is measured and animals with <300 mg/dL are eliminated. Animals with blood glucose levels ≧300 mg/dL are randomized into diabetic control and treated groups.
In all, three groups of animals are monitored and compared. The groups comprise a (nondiabetic) control group (n=5); an untreated diabetic (control) group (n=7); and treated diabetic group (n=7). […] The nondiabetic and diabetic control groups are administered vehicle.
After the final dose (Day 8), all groups of animals are fasted for 4 hours and anesthetized with CO2, and blood is collected by cardiac puncture into EDTA tubes. The plasma is separated from the red blood cells by centrifugation. Plasma triglyceride levels are quantitated on an automated COBAS chemistry system utilizing the Roche reagent for Triglycerides (Cat #44119). This assay is a standard spectrophotometric enzyme assay that uses a Trinder reaction to measure the final product (Trinder, P., Ann Clin Biochem 6: […], 1969). […]

Excerpt for rat aortic ring: Rats (less than 6 weeks old, approx 150 grams) are individually sacrificed via carbon dioxide asphyxiation. The abdomen and thorax are opened along the midline with scissors using known sterile techniques. The animals are placed recumbent on their right side, to allow displacement of the viscera. The abdominal and thoracic sections of the aorta are carefully separated from the dorsum by dissection along the longitudinal axis of the aorta. The isolated aorta is placed in a petri dish containing sterile, ice cold Hanks' balanced salt solution (Gibco BRL-Life Technologies, Rockville, Md.) for further micro-dissection under a dissecting microscope. The lumenal content of the aorta is dislodged by injection with Hanks, balanced salt solution via a syringe. Adherent adipose, loose connective tissue and segments of intercostal arteries are trimmed from the exterior of the aorta using sterile microsurgical instruments. The aorta is transferred to a clean petri dish containing fresh Hanks' balanced salt solution and the entire aorta is sectioned into 1 to 2 mm thick rings. The two end rings and any other rings which appear damaged are discarded. The aorta is maintained submerged in Hanks' balanced salt solution on ice while plating onto a 48-well plate.
Using a 48-well tissue culture plate, which is chilled on ice, in a tissue culture hood a 120 microliters of thawed Matrigel® (Becton Dickinson Labware, Bedford, Mass.) is plated onto each well using a sterile pipet tip. The Matrigel® is solidified by placing the culture plate for 30 minutes in a 37° C. humidified tissue culture incubator in the presence of 5% CO2. A single aortic ring is placed on edge, with one of its two cut surfaces resting on the Matrigel®, at the center of each well using a sterile curved forcep. The layout of the culture plate is such that the rings from multiple animals are placed in a single column on the plate. In this fashion, the experimental results represent observations based on six animals (n=6). […]

Compound | IC50 [1] | Blood glucose (diabetic (db/db) mice; 100 mg/kg/d in diet, Week 0, mean ± SD) | Blood glucose (diabetic (db/db) mice; 100 mg/kg/d in diet, Week 2, mean ± SD) | Blood glucose (diabetic (db/db) mice; 100 mg/kg/d in diet, Week 4, mean ± SD) | mean percent change in glucose (lowering) (diabetic (db/db) mice; 100 mg/kg/d) | Blood glucose (diabetic (db/db) mice; 300 mg/kg/d in diet, Week 0, mean ± SD) | Blood glucose (diabetic (db/db) mice; 300 mg/kg/d in diet, Week 2, mean ± SD) | mean percent change in glucose (lowering) (diabetic (db/db) mice; 300 mg/kg/d) | degree of wound healing [2] | Linear Microvascular Growth (rat aortic ring; Intervention (Days 4-6), compound only on days 4-6, mean ± SD) | Linear Microvascular Growth (rat aortic ring; Prevention (Days 1-6), 50 micromolar, mean ± SD) | Linear Microvascular Growth (rat aortic ring; Removal: 50 micromolar days 1-3, compound removed days 4-6, mean ± SD) | Triglyceride lowering compared to diabetic [3]
O=C(O)Cn1cc(Cc2nc3ccc(F)cc3s2)c2ccccc21 [Example 24, 3-[6-Fluorbenzothiazole-2-yl]methyl-indole-N-acetic Acid] | 1040 nM | – | – | – | – | – | – | – | – | – | – | – | –
Cc1c(Cc2nc3c(F)c(F)cc(F)c3s2)c2ccccc2n1CC(=O)O [Example 1, 2-methyl-3-(4,5,7-trifluorobenzothiazol-2-yl)methyl-indole-N-acetic acid] | – | 323 ± 79 mg/dL | 284 ± 75 mg/dL | 303 ± 79 mg/dL | 12% | 313 ± 52 mg/dL | 240 ± 85 mg/dL | 40% | significant increase in the degree of wound healing | 1.97 ± 0.66, n = 5 mm | 1.46 ± 0.48, n = 6 mm | 2.31 ± 0.71, n = 5 mm | 68%
